According to the kinase profiling compilation of Christmann-Franck et al. (2016):

Tests used:
Test in all cases: KINOMEscan competition binding
TGFBR1 (human) = TGFBR1 (human) (UniProt P36897); details: compound 10.0 µM
CSNK1G3 (human) = CSNK1G3 (human) (UniProt Q9Y6M4); details: compound 10.0 µM
ROCK1 (human) = ROCK1 (human) (UniProt Q13464); details: compound 10.0 µM
MAP2K2 (human) = MAP2K2 (human) (UniProt P36507); details: compound 10.0 µM
MARK1 (human) = MARK1 (human) (UniProt Q9P0L2); details: compound 10.0 µM
RPS6KA4 KD2 (human) = RPS6KA4 KD2 (human) (UniProt O75676); details: compound 10.0 µM
MATK (human) = MATK (human) (UniProt P42679); details: compound 10.0 µM
MAP2K5 (human) = MAP2K5 (human) (UniProt Q13163); details: compound 10.0 µM
[1] = target: JAK2 JH1 catalytic (human) (UniProt O60674); details: compound 10.0 µM
MARK4 (human) = MARK4 (human) (UniProt Q96L34); details: compound 10.0 µM
ANKK1 (human) = ANKK1 (human) (UniProt Q8NFD2); details: compound 10.0 µM
DAPK1 (human) = DAPK1 (human) (UniProt P53355); details: compound 10.0 µM
[2] = tested on: ABL1 (human), P00519 [Y253F]; details: compound 10.0 µM
SIK1 (human) = SIK1 (human) (UniProt P57059); details: compound 10.0 µM
PRKCD (human) = PRKCD (human) (UniProt Q05655); details: compound 10.0 µM
TNNI3K (human) = TNNI3K (human) (UniProt Q59H18); details: compound 10.0 µM
BMP2K (human) = BMP2K (human) (UniProt Q9NSY1); details: compound 10.0 µM
TXK (human) = TXK (human) (UniProt P42681); details: compound 10.0 µM
CDK4 CCND3 (human) = CDK4 CCND3 (human) (UniProt P11802+P30281); details: compound 10.0 µM
ROCK2 (human) = ROCK2 (human) (UniProt O75116); details: compound 10.0 µM
CAMK1D (human) = CAMK1D (human) (UniProt Q8IU85); details: compound 10.0 µM
IGF1R (human) = IGF1R (human) (UniProt P08069); details: compound 10.0 µM
RPS6KA2 KD1 (human) = RPS6KA2 KD1 (human) (UniProt Q15349); details: compound 10.0 µM
SGK3 (human) = SGK3 (human) (UniProt Q96BR1); details: compound 10.0 µM
MAP3K11 (human) = MAP3K11 (human) (UniProt Q16584); details: compound 10.0 µM
TESK1 (human) = TESK1 (human) (UniProt Q15569); details: compound 10.0 µM
MKNK2 (human) = MKNK2 (human) (UniProt Q9HBH9)
PAK2 (human) = PAK2 (human) (UniProt Q13177); details: compound 10.0 µM
IRAK1 (human) = IRAK1 (human) (UniProt P51617); details: compound 10.0 µM
[3] = tested on: KIT (human), P10721 [L576P]; details: compound 10.0 µM
AURKC (human) = AURKC (human) (UniProt Q9UQB9); details: compound 10.0 µM
PHKG2 (human) = PHKG2 (human) (UniProt P15735); details: compound 10.0 µM
CDC42BPG (human) = CDC42BPG (human) (UniProt Q6DT37); details: compound 10.0 µM
HCK (human) = HCK (human) (UniProt P08631); details: compound 10.0 µM
HIPK1 (human) = HIPK1 (human) (UniProt Q86Z02); details: compound 10.0 µM
MYLK3 (human) = MYLK3 (human) (UniProt Q32MK0); details: compound 10.0 µM
ICK (human) = ICK (human) (UniProt Q9UPZ9); details: compound 10.0 µM
PIM3 (human) = PIM3 (human) (UniProt Q86V86); details: compound 10.0 µM
[4] = tested on: PIK3CA (human), P42336 [Q546K]; details: compound 10.0 µM
CDK4 CCND1 (human) = CDK4 CCND1 (human) (UniProt P11802+P24385); details: compound 10.0 µM

MKNK2 (human), sequence (Q9HBH9 whole entry, looked up): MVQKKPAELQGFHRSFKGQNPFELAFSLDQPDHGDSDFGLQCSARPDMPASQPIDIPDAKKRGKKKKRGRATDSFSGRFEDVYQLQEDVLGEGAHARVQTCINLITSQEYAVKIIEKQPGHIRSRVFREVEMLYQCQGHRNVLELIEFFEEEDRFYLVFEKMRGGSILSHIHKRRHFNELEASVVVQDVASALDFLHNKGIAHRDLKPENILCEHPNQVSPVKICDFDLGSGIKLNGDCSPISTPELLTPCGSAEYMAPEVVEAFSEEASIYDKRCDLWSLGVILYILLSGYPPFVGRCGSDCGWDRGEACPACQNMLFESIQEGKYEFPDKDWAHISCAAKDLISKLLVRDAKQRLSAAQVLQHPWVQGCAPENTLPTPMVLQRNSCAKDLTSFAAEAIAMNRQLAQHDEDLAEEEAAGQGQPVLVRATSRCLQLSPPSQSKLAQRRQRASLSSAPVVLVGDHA
TESK1 (human), sequence (Q15569 whole entry, looked up): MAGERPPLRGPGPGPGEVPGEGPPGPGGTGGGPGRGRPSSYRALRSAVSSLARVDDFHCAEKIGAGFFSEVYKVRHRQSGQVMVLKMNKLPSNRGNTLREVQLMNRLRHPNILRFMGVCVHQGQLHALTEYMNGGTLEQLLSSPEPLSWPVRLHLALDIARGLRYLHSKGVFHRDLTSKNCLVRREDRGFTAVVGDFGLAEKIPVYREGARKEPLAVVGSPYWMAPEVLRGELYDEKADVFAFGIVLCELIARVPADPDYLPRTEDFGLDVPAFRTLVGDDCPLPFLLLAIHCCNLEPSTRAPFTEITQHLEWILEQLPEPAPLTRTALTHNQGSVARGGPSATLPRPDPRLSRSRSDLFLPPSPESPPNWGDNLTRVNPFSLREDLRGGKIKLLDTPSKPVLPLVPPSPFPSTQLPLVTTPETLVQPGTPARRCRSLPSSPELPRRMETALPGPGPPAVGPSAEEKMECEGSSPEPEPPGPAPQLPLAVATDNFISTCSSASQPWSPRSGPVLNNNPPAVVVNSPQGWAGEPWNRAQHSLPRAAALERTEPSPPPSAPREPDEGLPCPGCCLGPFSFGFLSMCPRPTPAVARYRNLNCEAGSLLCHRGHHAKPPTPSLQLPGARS
TGFBR1 (human), sequence (P36897 whole entry, looked up): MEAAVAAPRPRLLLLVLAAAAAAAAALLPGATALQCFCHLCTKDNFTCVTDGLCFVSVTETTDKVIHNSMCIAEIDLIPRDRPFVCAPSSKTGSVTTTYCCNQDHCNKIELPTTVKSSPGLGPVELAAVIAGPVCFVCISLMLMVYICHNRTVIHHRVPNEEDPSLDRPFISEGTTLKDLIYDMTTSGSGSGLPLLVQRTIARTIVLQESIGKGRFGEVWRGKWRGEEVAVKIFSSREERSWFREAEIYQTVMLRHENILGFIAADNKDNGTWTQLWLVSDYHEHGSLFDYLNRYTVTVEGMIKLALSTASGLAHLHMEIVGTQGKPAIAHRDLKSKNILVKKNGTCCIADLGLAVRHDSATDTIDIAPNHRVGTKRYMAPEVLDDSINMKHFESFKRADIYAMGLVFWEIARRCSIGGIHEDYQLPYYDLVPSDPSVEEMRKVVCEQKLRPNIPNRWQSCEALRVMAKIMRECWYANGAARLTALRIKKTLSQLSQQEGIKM
IRAK1 (human), sequence (P51617 whole entry, looked up): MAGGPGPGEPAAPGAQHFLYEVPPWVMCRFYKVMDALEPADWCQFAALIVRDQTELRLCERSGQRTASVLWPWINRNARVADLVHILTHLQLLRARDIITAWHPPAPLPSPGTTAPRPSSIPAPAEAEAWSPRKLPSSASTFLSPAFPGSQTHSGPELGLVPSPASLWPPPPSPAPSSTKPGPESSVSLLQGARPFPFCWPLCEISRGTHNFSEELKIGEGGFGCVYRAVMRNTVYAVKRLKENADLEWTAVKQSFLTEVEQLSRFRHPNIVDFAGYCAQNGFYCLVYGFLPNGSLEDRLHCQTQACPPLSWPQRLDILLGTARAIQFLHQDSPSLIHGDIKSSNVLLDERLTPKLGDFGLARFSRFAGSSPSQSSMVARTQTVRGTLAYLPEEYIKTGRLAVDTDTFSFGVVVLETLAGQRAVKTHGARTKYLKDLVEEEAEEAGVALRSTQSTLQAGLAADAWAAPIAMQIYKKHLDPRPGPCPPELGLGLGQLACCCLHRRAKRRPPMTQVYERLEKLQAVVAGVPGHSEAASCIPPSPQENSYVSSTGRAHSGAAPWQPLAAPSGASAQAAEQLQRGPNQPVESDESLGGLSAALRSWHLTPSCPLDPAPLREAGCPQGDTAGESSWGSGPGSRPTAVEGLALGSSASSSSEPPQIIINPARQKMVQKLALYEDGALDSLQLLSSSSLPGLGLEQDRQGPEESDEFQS
CSNK1G3 (human), sequence (Q9Y6M4 whole entry, looked up): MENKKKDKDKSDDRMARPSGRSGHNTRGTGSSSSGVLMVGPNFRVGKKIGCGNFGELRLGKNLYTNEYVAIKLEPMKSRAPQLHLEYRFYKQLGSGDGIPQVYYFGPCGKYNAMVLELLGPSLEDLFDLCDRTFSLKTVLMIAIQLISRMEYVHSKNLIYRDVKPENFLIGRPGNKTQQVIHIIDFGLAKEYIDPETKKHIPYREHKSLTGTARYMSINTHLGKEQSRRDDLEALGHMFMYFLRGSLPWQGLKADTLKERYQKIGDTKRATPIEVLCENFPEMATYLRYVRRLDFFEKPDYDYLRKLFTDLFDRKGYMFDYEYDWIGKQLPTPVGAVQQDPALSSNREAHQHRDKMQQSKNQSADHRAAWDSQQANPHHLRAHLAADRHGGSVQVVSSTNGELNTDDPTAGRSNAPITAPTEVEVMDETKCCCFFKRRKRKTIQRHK
MATK (human), sequence (P42679 whole entry, looked up): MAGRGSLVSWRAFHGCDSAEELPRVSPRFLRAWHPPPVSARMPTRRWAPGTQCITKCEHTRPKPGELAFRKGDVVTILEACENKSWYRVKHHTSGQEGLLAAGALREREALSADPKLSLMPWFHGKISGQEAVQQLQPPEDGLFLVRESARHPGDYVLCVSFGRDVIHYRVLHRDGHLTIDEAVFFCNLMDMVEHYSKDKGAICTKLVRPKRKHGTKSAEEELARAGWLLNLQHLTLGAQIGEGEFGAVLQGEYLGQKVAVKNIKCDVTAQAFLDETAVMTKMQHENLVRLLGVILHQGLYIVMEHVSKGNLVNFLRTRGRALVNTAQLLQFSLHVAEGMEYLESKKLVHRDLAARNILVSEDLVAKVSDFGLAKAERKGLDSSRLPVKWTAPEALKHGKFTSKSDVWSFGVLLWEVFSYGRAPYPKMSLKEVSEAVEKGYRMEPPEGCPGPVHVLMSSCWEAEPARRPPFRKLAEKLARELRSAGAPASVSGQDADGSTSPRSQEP
MARK1 (human), sequence (Q9P0L2 whole entry, looked up): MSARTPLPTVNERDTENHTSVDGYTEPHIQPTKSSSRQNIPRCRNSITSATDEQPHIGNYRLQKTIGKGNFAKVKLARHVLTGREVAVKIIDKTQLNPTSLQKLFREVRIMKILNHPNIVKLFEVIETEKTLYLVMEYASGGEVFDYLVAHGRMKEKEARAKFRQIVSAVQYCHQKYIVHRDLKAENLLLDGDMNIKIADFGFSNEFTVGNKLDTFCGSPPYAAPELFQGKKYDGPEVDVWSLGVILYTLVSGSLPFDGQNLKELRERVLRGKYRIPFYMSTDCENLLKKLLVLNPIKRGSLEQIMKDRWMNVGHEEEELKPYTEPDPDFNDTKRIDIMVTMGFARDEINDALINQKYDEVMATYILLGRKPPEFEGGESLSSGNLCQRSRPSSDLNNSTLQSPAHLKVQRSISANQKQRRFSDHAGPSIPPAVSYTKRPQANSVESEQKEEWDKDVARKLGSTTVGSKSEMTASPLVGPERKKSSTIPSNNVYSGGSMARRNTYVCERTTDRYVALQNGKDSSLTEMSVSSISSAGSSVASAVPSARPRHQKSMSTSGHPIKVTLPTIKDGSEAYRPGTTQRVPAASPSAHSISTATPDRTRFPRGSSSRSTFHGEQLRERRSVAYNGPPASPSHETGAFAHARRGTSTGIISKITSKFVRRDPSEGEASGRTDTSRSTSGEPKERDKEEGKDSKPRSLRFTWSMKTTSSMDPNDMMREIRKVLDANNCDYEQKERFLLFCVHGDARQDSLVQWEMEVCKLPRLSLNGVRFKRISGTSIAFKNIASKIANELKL
ANKK1 (human), sequence (Q8NFD2 whole entry, looked up): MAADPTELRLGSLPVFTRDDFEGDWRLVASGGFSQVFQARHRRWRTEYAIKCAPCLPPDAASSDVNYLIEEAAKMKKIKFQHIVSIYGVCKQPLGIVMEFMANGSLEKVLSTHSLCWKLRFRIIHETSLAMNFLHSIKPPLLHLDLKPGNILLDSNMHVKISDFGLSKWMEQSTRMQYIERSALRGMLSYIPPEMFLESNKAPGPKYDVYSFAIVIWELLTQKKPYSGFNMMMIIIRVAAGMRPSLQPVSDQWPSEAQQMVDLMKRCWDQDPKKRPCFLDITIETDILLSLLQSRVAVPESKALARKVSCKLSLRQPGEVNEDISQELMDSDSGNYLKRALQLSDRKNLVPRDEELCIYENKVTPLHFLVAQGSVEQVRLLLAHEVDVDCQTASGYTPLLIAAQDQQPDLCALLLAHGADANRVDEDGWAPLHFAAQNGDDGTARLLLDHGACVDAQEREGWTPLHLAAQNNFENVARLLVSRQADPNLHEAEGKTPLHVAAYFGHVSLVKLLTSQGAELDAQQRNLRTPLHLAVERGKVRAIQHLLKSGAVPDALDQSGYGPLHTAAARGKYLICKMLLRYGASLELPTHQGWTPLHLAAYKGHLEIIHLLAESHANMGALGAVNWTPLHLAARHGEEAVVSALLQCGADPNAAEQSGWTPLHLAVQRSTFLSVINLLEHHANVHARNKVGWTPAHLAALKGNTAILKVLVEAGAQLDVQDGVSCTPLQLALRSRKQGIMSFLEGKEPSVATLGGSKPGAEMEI

With `COc1cc(C(=O)N2CCC(N3CCN(C)CC3)CC2)ccc1Nc1ncc2c(n1)N(C)c1ccccc1C(=O)N2C` the kinase still bound, per cent of control (TGFBR1 (human)) was 100%, the kinase still bound, per cent of control (CSNK1G3 (human)) was 93% and the kinase still bound, per cent of control (ROCK1 (human)) was 100%. It also gave a kinase still bound, per cent of control (MAP2K2 (human)) of 99%, a kinase still bound, per cent of control (MARK1 (human)) of 87% and a kinase still bound, per cent of control (RPS6KA4 KD2 (human)) of 46%. For the same molecule, the kinase still bound, per cent of control (MATK (human)) was 100%, the kinase still bound, per cent of control (MAP2K5 (human)) was 85% and the kinase still bound, per cent of control [1] was 70%. The kinase still bound, per cent of control (MARK4 (human)) was 78%, the kinase still bound, per cent of control (ANKK1 (human)) was 100% and the kinase still bound, per cent of control (DAPK1 (human)) was 73%. It also gave a kinase still bound, per cent of control [2] of 89%, a kinase still bound, per cent of control (SIK1 (human)) of 77% and a kinase still bound, per cent of control (PRKCD (human)) of 75%. It also gave a kinase still bound, per cent of control (TNNI3K (human)) of 100%, a kinase still bound, per cent of control (BMP2K (human)) of 100% and a kinase still bound, per cent of control (TXK (human)) of 91%. For the same molecule, the residual activity (CDK4 CCND3 (human)) was 100%, the kinase still bound, per cent of control (ROCK2 (human)) was 87% and the kinase still bound, per cent of control (CAMK1D (human)) was 69%. The residual activity (IGF1R (human)) was 96%, the kinase still bound, per cent of control (RPS6KA2 KD1 (human)) was 83% and the kinase still bound, per cent of control (SGK3 (human)) was 95%. The kinase still bound, per cent of control (MAP3K11 (human)) was 100%, the kinase still bound, per cent of control (TESK1 (human)) was 82% and the Kd (MKNK2 (human)) was 380 nM. It also gave a kinase still bound, per cent of control (MKNK2 (human); compound 10.0 µM) of 1.2%, a kinase still bound, per cent of control (PAK2 (human)) of 65% and a kinase still bound, per cent of control (IRAK1 (human)) of 100%. It also gave a kinase still bound, per cent of control [3] of 100%, a kinase still bound, per cent of control (AURKC (human)) of 50% and a kinase still bound, per cent of control (PHKG2 (human)) of 33%. It also gave a kinase still bound, per cent of control (CDC42BPG (human)) of 100%, a kinase still bound, per cent of control (HCK (human)) of 100% and a kinase still bound, per cent of control (HIPK1 (human)) of 100%. The kinase still bound, per cent of control (MYLK3 (human)) was 100%, the kinase still bound, per cent of control (ICK (human)) was 90% and the kinase still bound, per cent of control (PIM3 (human)) was 88%. The kinase still bound, per cent of control [4] was 91% and the residual activity (CDK4 CCND1 (human)) was 100%.
